Here are results for two compounds from patent publication USRE43748E1, “Nitrogen-containing heterocyclic carboxamide derivatives or salts thereof and antiviral agents comprising the same” (priority 1998, dated 2012).

For assay [1], the system named is rhino virus typeII strain. Kind of assay: Anti-rhino activity, plaque inhibition in HeLa cells. To be noted: 72 h, plaque number, 30 μg/ml of compound, 3 days at 33° C., read-out: Inhibition percent (%). Format: cell-based.
Assay [2] has as its system Vero cell (monkey kidney cell). The experiment in a line: Cytotoxic activity, XTT method. Format: cell-based. Conditions: Primates, 96 h, Vero cells, cultured 4 days, read-out: 50% cell growth inhibitory concentration (IC50). (In general: Tetrazolium assays rely on reduction of a dye to a coloured formazan, in cell work by metabolically active cells.)

As to `CC(=O)NC(=O)c1nccnc1O` [No. 3, N^2-acetyl-3-hydroxy-2-pyrazinecarboxamide], in assay [1], the inhibition – broadly, how much of the control response was suppressed – at 30 µg/mL amounted to 47.2%.
`NC(=O)c1nccnc1O` [No. 1, 3-hydroxy-2-pyrazinecarboxamide]: the IC50 in assay [2] is no less than 250 µg/mL.
